Source: patent US20120029190A1, “COMPOUNDS FOR TREATING DISORDERS MEDIATED BY METABOTROPIC GLUTAMATE RECEPTOR 5, AND METHODS OF USE THEREOF” (priority 2009, published 2012)
Where two headings read alike, the source gives them in different places.

Molecular target: T1, human recombinant mGluR5 receptor (Homo sapiens, UniProt P41594)
T1 construct: expressed in transfected cells; expression induced with doxycycline
Test: mGluR5 in vitro functional assay (aequorin cell line, inhibition of glutamate EC80 response)
Type: cell-based
Conditions: aequorin cell line expressing human mGluR5, reference agonist glutamate at EC80, obtained in duplicate, read-out: IC50
Procedure, shortened: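 Doxycycline-induced (600 ng/mL, 18 h) aequorin cells loaded with coelenterazine h ≥4 h at room temperature; compound preincubated 3 min before glutamate at EC80. Luminescence recorded, normalized to digitonin or 20 mM ATP wells; % inhibition of EC80 response fitted by sigmoidal nonlinear regression.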

T1 sequence (P41594 21-1212): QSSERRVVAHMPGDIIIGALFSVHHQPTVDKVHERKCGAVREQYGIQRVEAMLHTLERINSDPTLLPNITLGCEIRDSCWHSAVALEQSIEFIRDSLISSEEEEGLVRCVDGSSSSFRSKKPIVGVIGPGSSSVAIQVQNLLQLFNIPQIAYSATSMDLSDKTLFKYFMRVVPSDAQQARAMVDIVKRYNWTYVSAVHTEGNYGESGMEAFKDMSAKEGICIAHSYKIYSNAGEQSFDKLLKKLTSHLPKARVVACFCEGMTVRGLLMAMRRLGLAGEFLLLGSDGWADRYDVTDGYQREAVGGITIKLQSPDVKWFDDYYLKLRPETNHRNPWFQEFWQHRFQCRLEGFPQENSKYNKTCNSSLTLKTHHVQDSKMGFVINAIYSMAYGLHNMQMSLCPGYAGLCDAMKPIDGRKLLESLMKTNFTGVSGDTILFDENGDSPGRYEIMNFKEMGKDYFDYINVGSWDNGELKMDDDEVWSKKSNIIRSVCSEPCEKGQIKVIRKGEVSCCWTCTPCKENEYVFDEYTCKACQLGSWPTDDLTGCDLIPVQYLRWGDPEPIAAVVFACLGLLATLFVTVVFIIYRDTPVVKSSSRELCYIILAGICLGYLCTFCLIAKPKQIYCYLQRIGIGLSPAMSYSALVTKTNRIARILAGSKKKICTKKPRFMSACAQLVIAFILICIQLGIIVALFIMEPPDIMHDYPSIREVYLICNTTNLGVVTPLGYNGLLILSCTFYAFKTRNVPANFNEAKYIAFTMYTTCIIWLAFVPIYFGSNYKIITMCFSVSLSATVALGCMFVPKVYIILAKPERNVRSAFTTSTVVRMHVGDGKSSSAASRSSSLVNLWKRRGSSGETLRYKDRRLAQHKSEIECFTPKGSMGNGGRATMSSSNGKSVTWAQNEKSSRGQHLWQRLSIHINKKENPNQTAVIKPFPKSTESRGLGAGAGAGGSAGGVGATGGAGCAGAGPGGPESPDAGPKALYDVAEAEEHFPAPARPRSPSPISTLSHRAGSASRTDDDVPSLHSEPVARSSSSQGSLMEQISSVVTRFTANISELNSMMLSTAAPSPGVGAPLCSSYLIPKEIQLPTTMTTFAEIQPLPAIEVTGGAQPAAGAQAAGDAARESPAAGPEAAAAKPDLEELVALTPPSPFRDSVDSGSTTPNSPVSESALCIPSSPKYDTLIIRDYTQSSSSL

Row | IC50 (Table 1) [nM] | IC50 (Table 2) [nM] | SMILES
1 | < 1000 | – | N#Cc1cccnc1N1CCc2oc(-c3ccccn3)nc2C1 [Compound 28, 2-(2-(Pyridin-2-yl)-6,7-dihydrooxazolo[4,5-c]pyridin-5(4H)-yl)nicotinonitrile]
2 | < 10000 | – | N#Cc1cc(F)cc(N2CCc3nc(-c4ccccn4)sc3C2)c1 [Compound 105, 3-Fluoro-5-(2-(pyridin-2-yl)-6,7-dihydro-thiazolo[5,4-c]pyridin-5(4H)-yl)benzonitrile]
3 | < 10000 | – | c1ccc(-c2nc3c(o2)CN(c2cnccn2)CC3)cc1 [Compound 18, 2-Phenyl-5-(pyrazin-2-yl)-4,5,6,7-tetrahydrooxazolo-[5,4-c]pyridine]
4 | – | > 10000 | O=C(CN1CCc2nc(-c3ccccn3)oc2C1)c1ccc(F)cc1 [Compound 150, 1-(4-Fluorophenyl)-2-(2-(pyridin-2-yl)-6,7-dihydrooxazolo[5,4-c]pyridin-5(4H)-yl)ethanone]
5 | – | > 10000 | CC1(C)CN(c2ccc(F)cc2Cl)Cc2nc(-c3ccccn3)oc21 [Compound 196, 5-(2-Chloro-4-fluorophenyl)-7,7-dimethyl-2-(pyridin-2-yl)-4,5,6,7-tetrahydrooxazolo[4,5-c]pyridine]
6 | – | < 10000 | Clc1cccc(N2CCCc3oc(-c4cnccn4)nc3C2)c1 [Compound 140, 5-(3-chlorophenyl)-2-(pyrazin-2-yl)-5,6,7,8-tetrahydro-4H-oxazolo[4,5-c]azepine]
7 | – | > 10000 | Fc1ccc(N2CCCc3oc(-c4ncccn4)nc3C2)cc1F [Compound 200, 5-(3,4-Difluorophenyl)-2-(pyrimidin-2-yl)-5,6,7,8-tetrahydro-4H-oxazolo[4,5-c]azepine]
8 | < 1000 | – | COc1cccc(-c2nc3c(o2)CN(c2ncccc2C#N)CC3)c1 [Compound 72, 2-(2-(3-Methoxyphenyl)-6,7-dihydrooxazolo[5,4-c]pyridin-5(4H)-yl)nicotinonitrile]
9 | – | > 10000 | O=C(CN1CCc2oc(-c3ccccn3)nc2C1)c1ccc(F)cc1 [Compound 192, 1-(4-Fluorophenyl)-2-(2-(pyridin-2-yl)-6,7-dihydrooxazolo[4,5-c]pyridin-5(4H)-yl)ethanone]
10 | – | < 10000 | Cc1cccnc1-c1nc2c(o1)CCN(c1cc(F)cc(C#N)c1)C2 [Compound 121, 3-fluoro-5-(2-(3-methylpyridin-2-yl)-6,7-dihydrooxazolo[4,5-c]pyridin-5(4H)-yl)benzonitrile]
11 | < 1000 | – | Fc1cncc(N2CCCc3oc(-c4ccccn4)nc3C2)c1 [Compound 104, 5-(5-Fluoropyridin-3-yl)-2-(pyridin-2-yl)-5,6,7,8-tetrahydro-4H-oxazolo[4,5-c]azepine]
12 | < 10000 | – | c1ccc(-c2nc3c(o2)CN(c2nccs2)CC3)nc1 [Compound 22, 2-(Pyridin-2-yl)-5-(thiazol-2-yl)-4,5,6,7-tetrahydrooxazolo[5,4-c]pyridine]
13 | – | > 10000 | Cc1nc(N2CCCc3oc(-c4ccccn4)nc3C2)cs1 [Compound 208, 5-(2-Methylthiazol-4-yl)-2-(pyridin-2-yl)-5,6,7,8-tetrahydro-4H-oxazolo[4,5-c]azepine]
14 | – | < 1000 | Fc1ccc(N2CCc3oc(-c4ccccn4)nc3C2)cc1F [Compound 152, 5-(3,4-Difluorophenyl)-2-(pyridin-2-yl)-4,5,6,7-tetrahydrooxazolo[4,5-c]pyridine]
15 | < 1000 | – | N#Cc1cccc(-c2nc3c(o2)CN(c2ncccc2C#N)C3)c1 [Compound 87, 2-(2-(3-Cyanophenyl)-4H-pyrrolo[3,4-d]oxazol-5(6H)-yl)nicotinonitrile]
16 | < 1000 | – | N#Cc1cccnc1N1CCc2nc(-c3ccccn3)oc2C1 [Compound 3, 2-(2-(Pyridin-2-yl)-6,7-dihydrooxazolo[5,4-c]pyridin-5(4H)-yl)nicotinonitrile]
17 | – | < 1000 | N#Cc1cc(F)cc(N2CCCc3oc(-c4cnccn4)nc3C2)c1 [Compound 141, 3-fluoro-5-(2-(pyrazin-2-yl)-7,8-dihydro-4H-oxazolo[4,5-c]azepin-5(6H)-yl)benzonitrile]
18 | – | < 1000 | N#Cc1cc(F)ccc1N1CCc2oc(-c3ccccn3)nc2C1 [Compound 165, 5-Fluoro-2-(2-(pyridin-2-yl)-6,7-dihydrooxazolo[4,5-c]pyridin-5(4H)-yl)benzonitrile]
19 | < 1000 | – | N#Cc1cc(F)cc(N2CCn3cc(-c4ccccn4)nc3C2)c1 [Compound 109, 3-Fluoro-5-(2(pyridin-2-yl)-5,6-dihydroimidazo-[1,2-a]pyrazin-7(8H)-yl)benzonitrile]
20 | < 1000 | – | CC1CN(c2cc(F)cc(C#N)c2)Cc2nc(-c3ccccn3)oc21 (racemic) [Compound 82, (+/−)-3-Fluoro-5-(7-methyl-2-(pyridin-2-yl)-6,7-dihydrooxazolo[4,5-c]pyridin-5(4H)-yl)benzonitrile]
21 | < 1000 | – | CC1CN(c2cc(F)cc(C#N)c2)Cc2oc(-c3ccccn3)nc21 (racemic) [Compound 81, (+/−)-3-Fluoro-5-(7-methyl-2-(pyridin-2-yl)-6,7-dihydrooxazolo[5,4-c]pyridin-5(4H)-yl)benzonitrile]
22 | – | < 1000 | Fc1ccc(-c2nc3c(o2)CCN(c2cccc(F)c2)C3)nc1 [Compound 124, 5-(3-fluorophenyl)-2-(5-fluoropyridin-2-yl)-4,5,6,7-tetrahydrooxazolo[4,5-c]pyridine]

Row | IC50 (Table 1) [nM] | IC50 (Table 2) [nM] | SMILES
23 | < 10000 | – | N#Cc1cccc(-c2nc3c(o2)CCN(c2ncccc2C#N)C3)c1 [Compound 63, 2-(2-(3-Cyanophenyl)-6,7-dihydrooxazolo[4,5-c]pyridin-5(4H)-yl)nicotinonitrile]
24 | < 1000 | – | N#Cc1cc(F)cc(N2CCc3nc(-c4ccccn4)oc3CC2)c1 [Compound 89, 3-Fluoro-5-(2-(pyridin-2-yl)-7,8-dihydro-4H-oxazolo[5,4-d]azepin-6(5H)-yl)benzonitrile]
25 | < 10000 | – | O=C(c1ccc(F)cc1)N1CCc2oc(-c3ccc(F)cc3)nc2C1 [Compound 54, (4-Fluorophenyl)(2-(4-fluorophenyl)-6,7-dihydrooxazolo[4,5-c]pyridin-5(4H)-yl)methanone]
26 | < 1000 | – | N#Cc1cccnc1N1Cc2nc(-c3ccccn3)oc2C1 [Compound 85, 2-(2-(Pyridin-2-yl)-4H-pyrrolo[3,4-d]oxazol-5(6H)-yl)pyridine-3-carbonitrile]
27 | – | < 1000 | N#Cc1ccc(F)c(N2CCc3oc(-c4ccccn4)nc3C2)c1 [Compound 185, 4-Fluoro-3-(2-(pyridin-2-yl)-6,7-dihydrooxazolo[4,5-c]pyridin-5(4H)-yl)benzonitrile]
28 | > 10000 | – | N#Cc1cccc(-c2nc3c(o2)CN(c2ccccn2)CC3)c1 [Compound 65, 3-(5-(Pyridin-2-yl)-4,5,6,7-tetrahydrooxazolo[5,4-c]pyridin-2-yl)benzonitrile]
29 | – | < 1000 | Clc1cccnc1N1CCc2oc(-c3ccccn3)nc2C1 [Compound 187, 5-(3-Chloropyridin-2-yl)-2-(pyridin-2-yl)-4,5,6,7-tetrahydrooxazolo[4,5-c]pyridine]
30 | < 10000 | – | N#Cc1cccc(-c2nc3c(o2)CN(c2ncccc2C#N)CC3)c1 [Compound 66, 2-(2-(3-Cyanophenyl)-6,7-dihydrooxazolo[5,4-c]pyridin-5(4H)-yl)nicotinonitrile]
31 | – | < 10000 | Clc1cnccc1N1CCc2oc(-c3ccccn3)nc2C1 [Compound 184, 5-(3-Chloropyridin-4-yl)-2-(pyridin-2-yl)-4,5,6,7-tetrahydrooxazolo[4,5-c]pyridine]
32 | < 1000 | – | N#Cc1cc(Br)cc(N2CCc3nc(-c4ccccn4)oc3C2)c1 [Compound 10, 3-Bromo-5-(2-(pyridin-2-yl)-6,7-dihydrooxazolo[5,4-c]pyridin-5(4H)-yl)benzonitrile]
33 | – | < 1000 | Clc1cccc(N2CCc3oc(-c4ccccn4)nc3C2)c1 [Compound 115, 5-(3-chlorophenyl)-2-(pyridin-2-yl)-4,5,6,7-tetrahydrooxazolo[4,5-c]pyridine]
34 | – | < 1000 | Fc1ccc([C@@H]2CCc3oc(-c4ccccn4)nc3C2)c(Cl)c1 (single isomer, unassigned) [Compound 224]
35 | – | < 1000 | Clc1cc(Cl)cc(N2CCCc3oc(-c4ccccn4)nc3C2)c1 [Compound 209, 5-(3,5-Dichlorophenyl)-2-(pyridin-2-yl)-5,6,7,8-tetrahydro-4H-oxazolo[4,5-c]azepine]
36 | < 1000 | – | N#Cc1cccc(N2CCCc3nc(-c4ncccn4)oc3C2)c1 [Compound 92, 3-(2-(Pyrimidin-2-yl)-7,8-dihydro-4H-oxazolo[5,4-c]azepin-5(6H)-yl)benzonitrile]
37 | – | < 10000 | N#Cc1cccc(N2CCc3nc(C4CCCCC4)oc3C2)c1 [Compound 149, 3-(2-Cyclohexyl-6,7-dihydrooxazolo[5,4-c]pyridin-5(4H)-yl)benzonitrile]
38 | – | < 10000 | Cc1nc(-c2nc3c(o2)CCCN(c2ccccn2)C3)cs1 [Compound 207, 2-(2-Methylthiazol-4-yl)-5-(pyridin-2-yl)-5,6,7,8-tetrahydro-4H-oxazolo[4,5-c]azepine]
39 | – | < 1000 | N#Cc1cc(F)cc(N2CCCc3oc(-c4ccc(F)cn4)nc3C2)c1 [Compound 135, 3-fluoro-5-(2-(5-fluoropyridin-2-yl)-7,8-dihydro-4H-oxazolo[4,5-c]azepin-5(6H)-yl)benzonitrile]
40 | < 1000 | – | N#Cc1cc(F)cc(N2CCc3nc(-c4ccccc4)oc3C2)c1 [Compound 21, 3-Fluoro-5-(2-phenyl-6,7-dihydrooxazolo[5,4-c]pyridin-5(4H)-yl)benzonitrile]
41 | < 1000 | – | N#Cc1cccnc1N1CCc2oc(-c3cccc(Cl)c3)nc2C1 [Compound 39, 2-(2-(3-Chlorophenyl)-6,7-dihydrooxazolo[4,5-c]pyridin-5(4H)-yl)nicotinonitrile]
42 | < 10000 | – | N#Cc1cncc(N2CCc3nc(-c4ccccn4)oc3C2)c1 [Compound 8, 5-(2-(Pyridin-2-yl)-6,7-dihydrooxazolo[5,4-c]pyridin-5(4H)-yl)nicotinonitrile]
43 | < 1000 | – | N#Cc1cccc(N2CCc3oc(-c4ccccn4)nc3C2)c1 [Compound 23, 3-(2-(Pyridin-2-yl)-6,7-dihydrooxazolo[4,5-c]pyridin-5(4H)-yl)benzonitrile]
